Data: PMC6767204, “Synthesis and Biological Evaluation of Disubstituted Pyrimidines as Selective 5-HT2C Agonists” (Molecules, 2019)
Structures can show the parent of a compound that is named as a salt. Where two headings read alike, the source gives them in different places. Each block holds one molecule with its values, some of them ahead of it.

Columns and labels:
5-HT2C receptor [1] = target: T1, 5-HT2C receptor (Homo sapiens, UniProt P28335); assay: 5-HT2C receptor cell-based functional assay (agonist mode, fluorescence-based); settings: for %activation: Table 2, serotonin as reference compound
T1 sequence (P28335 33-458): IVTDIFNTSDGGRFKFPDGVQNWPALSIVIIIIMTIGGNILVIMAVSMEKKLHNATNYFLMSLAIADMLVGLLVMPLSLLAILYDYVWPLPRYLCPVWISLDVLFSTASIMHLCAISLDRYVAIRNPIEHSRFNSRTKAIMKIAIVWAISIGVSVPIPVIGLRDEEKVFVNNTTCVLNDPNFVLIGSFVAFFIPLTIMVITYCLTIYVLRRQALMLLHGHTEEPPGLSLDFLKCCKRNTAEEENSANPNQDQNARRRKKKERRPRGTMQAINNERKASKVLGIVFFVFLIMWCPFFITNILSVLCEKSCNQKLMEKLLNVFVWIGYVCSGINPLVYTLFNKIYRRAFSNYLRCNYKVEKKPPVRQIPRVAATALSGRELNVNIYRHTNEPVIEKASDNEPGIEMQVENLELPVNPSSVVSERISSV
Description: The synthesized compounds were tested in agonist mode with the 5-HT2C receptor assay using recombinant human HEK-293 cells serviced by either Eurofins Cerep or DGMIF (Daegu-Gyeongbuk Medical Innovation Foundation). All the experiments were duplicated.

5-HT2C receptor [2] = target: T1, 5-HT2C receptor; assay: 5-HT receptor radioligand binding affinity assay, 2C; set-up: expressed in transfected cells
Description: (§1) Eleven dilutions (5 x assay concentration) of the test and reference compounds (Table S1) were prepared in standard binding buffer (50 mM tris(hydroxymethyl)-aminomethane–HCl (Tris-HCl), 10 mM MgCl2, 1 mM ethylenediaminetetraacetate (EDTA), pH 7.4) by serial dilution: 0.05 nM, 0.5 nM, 1.5 nM, 5 nM, 15 nM, 50 nM, 150 nM, 500 nM, 1.5 μM, 5 μM, and 50 μM. The radioligand (Table S1) was diluted to five times the assay concentration in standard binding buffer. Aliquots (50 μL) of the radioligand were dispensed into the wells of a 96-well plate containing 100 μL of standard binding buffer. Triplicate aliquots (50 μL) of the test and reference compound dilutions were then added. Finally, crude membrane fractions (50 μL) of cells (HEK293 or CHO) expressing human recombinant receptors were dispensed into each well. A total 250 μL of the reaction mixtures was incubated at room temperature and shielded from light for 1.5 h, then harvested by rapid filtration onto Whatman GF/B glass fiber filters presoaked with 0.3% polyethyleneimine, by using a 96-well Brandel harvester.
(§2) Four rapid washes were performed with chilled standard binding buffer (500 μL) to decrease nonspecific binding. Filters were placed in 6 mL scintillation tubes and allowed to dry overnight. The next day, 4 ml of EcoScint scintillation cocktail (National Diagnostics) was added to each tube. The tubes were capped, labeled, and counted by liquid scintillation counting. The filter mats were dried, and the scintillant was melted onto the filters, then the radioactivity retained on the filters was counted in a Microbeta scintillation counter. The IC50 values were obtained by using the Prism 4.0 program (GraphPad Software, San Diego, CA) and converted into Ki values. Each compound was tested in triplicate at least.
(§3) 3. Radioligands and reference compounds for binding assay
(§4) Table S1. A list of 5-HT receptor radioligands and reference compounds for binding assay.
(§5) Receptor subtype Radioligand Reference compound
(§6) 1A [3H]8-OH-DPAT Methysergide
(§7) 2A [3H]Ketanserin Chlorpromazine
(§8) 2C [3H]Mesulergine Chlorpromazine

5-HT1D receptor = target: T2, 5-HT1D receptor (Homo sapiens, UniProt P28221); assay: 5-HT receptor radioligand binding affinity assay, 1D
T2 construct: expressed in transfected cells; host or cells: HEK293 or CHO
T2 sequence (P28221 whole entry): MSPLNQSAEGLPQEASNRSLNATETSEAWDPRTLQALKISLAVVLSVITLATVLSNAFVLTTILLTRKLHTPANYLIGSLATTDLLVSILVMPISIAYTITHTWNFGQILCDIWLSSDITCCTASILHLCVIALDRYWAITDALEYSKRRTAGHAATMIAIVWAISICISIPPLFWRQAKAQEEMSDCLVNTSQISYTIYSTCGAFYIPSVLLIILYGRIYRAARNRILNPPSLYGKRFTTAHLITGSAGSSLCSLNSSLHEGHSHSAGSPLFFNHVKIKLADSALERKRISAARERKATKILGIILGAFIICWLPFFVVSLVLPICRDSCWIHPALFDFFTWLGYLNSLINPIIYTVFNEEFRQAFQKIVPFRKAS
Description: as §1, §2, §3, §4, §5, §6, §7, §8

5-HT1A receptor = target: T3, 5-HT1A receptor (Homo sapiens, UniProt P08908); assay: 5-HT receptor radioligand binding affinity assay, 1A
T3 construct: expressed in transfected cells; host or cells: HEK293 or CHO
T3 sequence (P08908 1-422): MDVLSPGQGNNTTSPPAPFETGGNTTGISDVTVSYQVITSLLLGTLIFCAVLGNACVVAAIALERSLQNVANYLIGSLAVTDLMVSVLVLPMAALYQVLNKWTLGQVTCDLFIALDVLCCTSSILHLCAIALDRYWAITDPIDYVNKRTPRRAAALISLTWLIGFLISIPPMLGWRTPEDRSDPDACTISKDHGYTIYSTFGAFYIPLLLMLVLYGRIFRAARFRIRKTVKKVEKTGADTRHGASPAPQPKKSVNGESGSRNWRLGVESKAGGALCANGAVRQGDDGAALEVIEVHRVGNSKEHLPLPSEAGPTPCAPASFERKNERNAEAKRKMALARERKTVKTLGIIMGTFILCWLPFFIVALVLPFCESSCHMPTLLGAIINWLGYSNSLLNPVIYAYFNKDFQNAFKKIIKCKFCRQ
Description: as §1, §2, §3, §4, §5, §6, §7, §8

5-HT3 receptor = target: T4, 5-HT3 receptor (Homo sapiens, UniProt P46098); assay: 5-HT receptor radioligand binding affinity assay, 3
T4 construct: expressed in transfected cells; host or cells: HEK293 or CHO
T4 sequence (P46098 24-478): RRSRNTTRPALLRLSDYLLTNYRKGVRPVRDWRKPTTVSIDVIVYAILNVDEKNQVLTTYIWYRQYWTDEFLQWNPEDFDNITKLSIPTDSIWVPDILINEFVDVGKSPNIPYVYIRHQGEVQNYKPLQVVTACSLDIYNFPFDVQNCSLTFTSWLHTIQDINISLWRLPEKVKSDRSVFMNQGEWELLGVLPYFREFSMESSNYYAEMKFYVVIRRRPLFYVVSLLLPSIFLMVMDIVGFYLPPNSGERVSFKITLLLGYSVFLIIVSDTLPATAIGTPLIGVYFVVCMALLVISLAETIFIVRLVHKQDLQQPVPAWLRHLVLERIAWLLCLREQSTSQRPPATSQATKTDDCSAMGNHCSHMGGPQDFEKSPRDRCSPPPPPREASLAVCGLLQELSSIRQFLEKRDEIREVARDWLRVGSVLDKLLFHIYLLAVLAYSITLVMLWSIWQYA
Description: as §1, §2, §3, §4, §5, §6, §7, §8

5-HT5A receptor = target: T5, 5-HT5A receptor (Homo sapiens, UniProt P47898); assay: 5-HT receptor radioligand binding affinity assay, 5A
T5 construct: expressed in transfected cells; host or cells: HEK293 or CHO
T5 sequence (P47898 whole entry): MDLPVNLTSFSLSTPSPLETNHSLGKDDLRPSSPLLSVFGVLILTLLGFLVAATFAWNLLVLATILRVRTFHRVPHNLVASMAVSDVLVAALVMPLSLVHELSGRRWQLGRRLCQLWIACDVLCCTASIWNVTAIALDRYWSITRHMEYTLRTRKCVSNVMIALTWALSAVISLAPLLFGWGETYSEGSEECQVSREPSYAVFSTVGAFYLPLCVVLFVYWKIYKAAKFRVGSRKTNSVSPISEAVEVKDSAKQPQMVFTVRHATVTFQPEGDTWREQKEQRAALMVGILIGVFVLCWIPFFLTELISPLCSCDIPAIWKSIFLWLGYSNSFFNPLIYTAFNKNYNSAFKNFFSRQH
Description: as §1, §2, §3
(§9) Table S1. A list of 5-HT receptor radioligands and reference compounds for binding assay. […]

5-HT1B receptor = target: T6, 5-HT1B receptor (Homo sapiens, UniProt P28222); assay: 5-HT receptor radioligand binding affinity assay, 1B; settings: 10 μM
T6 construct: expressed in transfected cells; host or cells: HEK293 or CHO
T6 sequence (P28222 whole entry): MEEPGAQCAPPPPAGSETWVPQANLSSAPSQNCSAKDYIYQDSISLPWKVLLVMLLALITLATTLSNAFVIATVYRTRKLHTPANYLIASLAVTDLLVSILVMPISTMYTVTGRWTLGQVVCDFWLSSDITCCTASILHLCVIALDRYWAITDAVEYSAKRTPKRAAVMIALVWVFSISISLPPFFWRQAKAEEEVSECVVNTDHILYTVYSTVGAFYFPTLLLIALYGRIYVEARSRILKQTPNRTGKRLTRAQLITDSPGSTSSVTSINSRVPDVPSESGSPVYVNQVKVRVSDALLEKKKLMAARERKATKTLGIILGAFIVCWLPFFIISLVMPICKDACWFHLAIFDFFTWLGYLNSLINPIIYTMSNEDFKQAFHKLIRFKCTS

5-HT6 receptor = target: T7, 5-HT6 receptor (Homo sapiens, UniProt P50406); assay: 5-HT receptor radioligand binding affinity assay, 6
T7 construct: expressed in transfected cells; host or cells: HEK293 or CHO
T7 sequence (P50406 whole entry): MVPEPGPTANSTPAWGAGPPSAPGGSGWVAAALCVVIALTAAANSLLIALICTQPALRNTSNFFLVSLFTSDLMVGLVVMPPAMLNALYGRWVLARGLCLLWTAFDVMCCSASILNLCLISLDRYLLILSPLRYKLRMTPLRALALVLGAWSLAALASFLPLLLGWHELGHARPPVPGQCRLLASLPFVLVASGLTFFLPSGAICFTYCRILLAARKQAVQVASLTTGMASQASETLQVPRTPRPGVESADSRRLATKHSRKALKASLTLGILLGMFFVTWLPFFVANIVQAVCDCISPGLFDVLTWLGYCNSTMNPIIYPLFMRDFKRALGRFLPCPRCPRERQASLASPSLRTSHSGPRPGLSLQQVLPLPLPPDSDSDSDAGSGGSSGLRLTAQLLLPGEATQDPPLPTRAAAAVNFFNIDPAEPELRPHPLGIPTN
Description: as §1, §2, §3, §4, §5, §6, §7, §8

5-HT7 receptor = target: T8, 5-HT7 receptor (Homo sapiens, UniProt P34969); assay: 5-HT receptor radioligand binding affinity assay, 7
T8 construct: expressed in transfected cells; host or cells: HEK293 or CHO
T8 sequence (P34969 whole entry): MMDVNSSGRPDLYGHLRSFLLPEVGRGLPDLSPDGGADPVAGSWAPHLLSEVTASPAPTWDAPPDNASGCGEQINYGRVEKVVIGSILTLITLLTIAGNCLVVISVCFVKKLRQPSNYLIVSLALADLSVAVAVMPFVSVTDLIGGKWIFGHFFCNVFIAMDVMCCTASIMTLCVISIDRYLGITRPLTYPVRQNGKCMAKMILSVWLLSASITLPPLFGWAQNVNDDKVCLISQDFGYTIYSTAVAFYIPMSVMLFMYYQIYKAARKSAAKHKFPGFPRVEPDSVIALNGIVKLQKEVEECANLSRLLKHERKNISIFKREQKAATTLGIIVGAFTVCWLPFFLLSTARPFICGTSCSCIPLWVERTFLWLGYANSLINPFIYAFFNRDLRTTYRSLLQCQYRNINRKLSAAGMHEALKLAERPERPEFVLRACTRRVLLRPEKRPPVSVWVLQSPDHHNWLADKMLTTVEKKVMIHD
Description: as §1, §2, §3, §4, §5, §6, §7, §8

5-HT1E receptor = target: T9, 5-HT1E receptor (Homo sapiens, UniProt P28566); assay: 5-HT receptor radioligand binding affinity assay, 1E
T9 construct: expressed in transfected cells; host or cells: HEK293 or CHO
T9 sequence (P28566 whole entry): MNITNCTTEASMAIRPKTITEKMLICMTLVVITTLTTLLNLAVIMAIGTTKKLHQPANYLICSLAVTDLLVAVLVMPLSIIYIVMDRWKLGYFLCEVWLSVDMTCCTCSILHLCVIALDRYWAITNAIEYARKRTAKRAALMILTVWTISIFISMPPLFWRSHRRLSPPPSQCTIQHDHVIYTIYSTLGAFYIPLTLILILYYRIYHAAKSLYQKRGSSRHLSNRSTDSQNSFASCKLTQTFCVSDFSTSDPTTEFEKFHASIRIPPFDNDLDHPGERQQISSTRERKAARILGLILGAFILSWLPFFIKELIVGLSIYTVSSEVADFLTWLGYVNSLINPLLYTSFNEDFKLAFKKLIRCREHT
Description: as §1, §2, §3, §9

5-HT2B receptor = target: T10, 5-HT2B receptor (Homo sapiens, UniProt P41595); assay: 5-HT receptor radioligand binding affinity assay, 2B
T10 construct: expressed in transfected cells; host or cells: HEK293 or CHO
T10 sequence (P41595 whole entry): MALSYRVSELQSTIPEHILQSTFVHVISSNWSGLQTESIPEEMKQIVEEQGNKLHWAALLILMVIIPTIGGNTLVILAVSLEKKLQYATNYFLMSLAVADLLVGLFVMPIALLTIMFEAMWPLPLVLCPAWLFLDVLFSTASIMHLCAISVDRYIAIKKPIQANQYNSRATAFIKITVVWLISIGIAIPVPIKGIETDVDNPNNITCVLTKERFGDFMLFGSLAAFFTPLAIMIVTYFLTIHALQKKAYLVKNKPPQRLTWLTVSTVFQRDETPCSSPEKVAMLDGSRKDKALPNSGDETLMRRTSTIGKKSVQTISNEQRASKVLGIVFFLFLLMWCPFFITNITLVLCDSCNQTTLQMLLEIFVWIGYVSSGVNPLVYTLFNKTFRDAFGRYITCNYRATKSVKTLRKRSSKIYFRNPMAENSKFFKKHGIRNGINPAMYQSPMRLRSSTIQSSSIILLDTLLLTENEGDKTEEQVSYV
Description: as §1, §2, §3, §4, §5, §6, §7, §8

5-HT2A receptor = target: T11, 5-HT2A receptor (Homo sapiens, UniProt P28223); assay: 5-HT receptor radioligand binding affinity assay, 2A
T11 construct: expressed in transfected cells; host or cells: HEK293 or CHO
T11 sequence (P28223 whole entry): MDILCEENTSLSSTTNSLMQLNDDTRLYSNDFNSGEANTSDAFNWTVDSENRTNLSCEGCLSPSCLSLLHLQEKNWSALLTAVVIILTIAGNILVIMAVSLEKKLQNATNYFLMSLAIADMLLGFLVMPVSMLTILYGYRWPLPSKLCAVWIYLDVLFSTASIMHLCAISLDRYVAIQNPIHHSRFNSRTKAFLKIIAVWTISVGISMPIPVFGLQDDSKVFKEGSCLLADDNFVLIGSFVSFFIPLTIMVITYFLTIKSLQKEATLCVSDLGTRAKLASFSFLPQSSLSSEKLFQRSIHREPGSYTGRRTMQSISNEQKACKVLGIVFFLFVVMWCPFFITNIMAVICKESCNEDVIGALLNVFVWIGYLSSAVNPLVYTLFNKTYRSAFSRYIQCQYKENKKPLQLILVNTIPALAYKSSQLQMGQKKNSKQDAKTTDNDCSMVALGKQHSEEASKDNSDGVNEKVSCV
Description: as §1, §2, §3, §4, §5, §6, §7, §8

[3] = HEK293, read-out: %activation (10 μM), 10 μM, recombinant human HEK-293 cells, Table 1
[4] = HEK293, read-out: %activation (10 μM)
[5] = subtype Ki divided by 5-HT2C Ki

- %activation (5-HT2C receptor [1]): 7.7%
- Ki (5-HT2C receptor [2]; Table 2): 1260 nM
SMILES: C[C@@H](Oc1nc(N[C@H]2CCNC2)ncc1F)c1cccc(F)c1 [10e, 5-fluoro-4-((R)-1-(3-fluorophenyl)ethoxy)-N-((S)-pyrrolidin-3-yl)pyrimidin-2-amine]

- %activation (5-HT2C receptor [1]): 29.5%
- Ki (5-HT2C receptor [2]; Table 2): 295 nM
SMILES: C[C@@H](Oc1nc(N2C[C@H]3CNC[C@H]3C2)ncc1F)c1cccc(F)c1 [10c, (3aR,6aS)-2-(5-fluoro-4-((R)-1-(3-fluorophenyl)ethoxy)pyrimidin-2-yl)octahydropyrrolo[3,4-c]pyrrole]

- %activation (5-HT2C receptor [1]): 0.1%
SMILES: C[C@@H](Oc1nc(N[C@H]2CCNC2)ncc1F)c1ccc(F)cc1 [10j, 5-Fluoro-4-((R)-1-(4-fluorophenyl)ethoxy)-N-((S)-pyrrolidin-3-yl)pyrimidin-2-amine]

- %activation (5-HT2C receptor [1]): 78.2%
SMILES: C[C@@H](Oc1nc(N2CCC3(CCNC3)C2)ncc1F)c1cccc(F)c1 (stereo partly drawn) [10b, 2-(5-fluoro-4-((R)-1-(3-fluorophenyl)ethoxy)pyrimidin-2-yl)-2,7-diazaspiro[4.4]nonane]

Continued, molecule first:

SMILES: Fc1ccc(CCOc2cnc(N3CCNCC3)nc2)cc1 [9f]
- activation at 10 µM (5-HT2C receptor [1]; [3]): 4%

SMILES: Fc1cccc(CCOc2cnc(N3CCCNCC3)nc2)c1 [9o]
- activation at 10 µM (5-HT2C receptor [1]; [4]): 3%

SMILES: Fc1cccc(COc2cnc(N3CCNCC3)nc2)c1 [9b, 4-(5-((3-fluorobenzyl)oxy)pyrimidin-2-yl)piperazin-1-ium∙hydrochloride]
- activation at 10 µM (5-HT2C receptor [1]; [3]): > 50%

SMILES: Fc1cccc(Oc2cnc(N3CCCNCC3)nc2)c1 [9m]
- activation at 10 µM (5-HT2C receptor [1]; [4]): 16%

SMILES: Fc1ccc(Oc2cnc(N3CCNCC3)nc2)cc1 [9d]
- activation at 10 µM (5-HT2C receptor [1]; [3]): 5%

SMILES: Fc1ccc(Oc2cnc(N3CCCNCC3)nc2)cc1 [9p]
- activation at 10 µM (5-HT2C receptor [1]; [4]): 14%

SMILES: C[C@@H]1CNCCN1c1ncc(Oc2ccc(F)cc2)cn1 [9j]
- activation at 10 µM (5-HT2C receptor [1]; [4]): 26%

SMILES: C[C@@H](Oc1nc(N2CCCNCC2)ncc1F)c1ccc(F)cc1 [10f, (R)-1-(5-fluoro-4-(1-(4-fluorophenyl)ethoxy)pyrimidin-2-yl)-1,4-diazepane]
- Ki (5-HT1D receptor): 937 nM
- %Binding at 10 μM, 1D (5-HT1D receptor; 10 μM): 81.3%
- SI, selectivity index, 1D (5-HT1D receptor; [5]): 49.3
- Ki (5-HT1A receptor): 1070 nM
- %Binding at 10 μM, 1A (5-HT1A receptor; 10 μM): 67.6%
- SI, selectivity index, 1A (5-HT1A receptor; [5]): 56.1
- Ki (5-HT3 receptor): 415 nM
- %Binding at 10 μM, 3 (5-HT3 receptor; 10 μM): 88.0%
- SI, selectivity index, 3 (5-HT3 receptor; [5]): 21.8
- %Binding at 10 μM, 5A (5-HT5A receptor): 15.2 /ND %
- %Binding at 10 μM, 1B (5-HT1B receptor): 19.2 /ND^b %
- %activation (5-HT2C receptor [1]): 52.4%
- Ki (5-HT6 receptor): 467 nM
- %Binding at 10 μM, 6 (5-HT6 receptor; 10 μM): 56.5%
- SI, selectivity index, 6 (5-HT6 receptor; [5]): 24.6
- Ki (5-HT7 receptor): 616 nM
- %Binding at 10 μM, 7 (5-HT7 receptor; 10 μM): 55.4%
- SI, selectivity index, 7 (5-HT7 receptor; [5]): 32.4
- %binding (5-HT2C receptor [2]; Table 2): 93.9%
- Ki (5-HT2C receptor [2]; Table 2): 19 nM
- SI, selectivity index, 2C (5-HT2C receptor [2]; [5]): 1.0
- %Binding at 10 μM, 1E (5-HT1E receptor): 31.3 /ND^b %
- Ki (5-HT2B receptor): 118 nM
- %Binding at 10 μM, 2B (5-HT2B receptor; 10 μM): 95.0%
- SI, selectivity index, 2B (5-HT2B receptor; [5]): 6.2
- Ki (5-HT2A receptor): 2860 nM
- %Binding at 10 μM, 2A (5-HT2A receptor; 10 μM): 52.9%
- SI, selectivity index, 2A (5-HT2A receptor; [5]): 150.7

SMILES: C[C@@H]1CNCCN1c1ncc(Oc2cccc(F)c2)cn1 [9g]
- activation at 10 µM (5-HT2C receptor [1]; [4]): 35%

SMILES: C[C@@H]1CNCCN1c1ncc(OCCc2cccc(F)c2)cn1 [9i]
- activation at 10 µM (5-HT2C receptor [1]; [4]): 40%
